Source: PMC10291556 (Journal of Medicinal Chemistry, 2023)

Legend:
tumor cells = conditions: cited from earlier work
[1] = test system: HeLa cells / Thp-1/PMA macrophages; assay: Phagocytosis of treated HeLa cells by Thp-1/PMA macrophages; assay type: cell-based, human; conditions: HeLa treated 24 h at 1× or 3× IC50,72h, co-incubated 2.5 h with Thp-1/PMA macrophages
Procedure: Figure 8 Hallmarks of ICD. (A) Extracellular ATP levels in HeLa cell supernatants. […] (B) Extracellular level of HMGB1. […] (C) Calreticulin exposure to the cell surface. […] The surface calreticulin exposure was determined in 4′,6-diamidino-2-phenylindole dihydrochloride (DAPI)-negative cell population. Relative fluorescence intensity was calculated as the median fluorescence of the population of treated cells/median fluorescence of untreated control cells. The data in panels A, B, and C are shown as a mean of 4–5 measurements ± SD. Statistical significance from untreated control was determined with the Student t-test (*p ≤ 0.05, **p ≤ 0.01, and ^#p ≤ 0.001). (D) Quantitative evaluation of phagocytosis of HeLa cells treated with the investigated compounds by human Thp-1/PMA macrophages (analyzed by flow cytometry). […] Error bars are the SEMs calculated from three independent experiments. The stars denote a significant difference from untreated control (*p ≤ 0.05, **p ≤ 0.01) as calculated by the […] Student t-test. […]
Human monocytic leukemia cells Thp-1 (obtained from American Type Culture Collection, ATCC) were differentiated into macrophages with phorbol 12-myristate 13-acetate (PMA, 100 nM) for 24 h. […] Phagocytosis was evaluated using flow cytometry (BD FACSVerse), and data were analyzed with FCS Express 7 (DeNovo software; Glendale, CA). […]

HeLa cells [2] = assay: HMGB1 release (ELISA); assay type: cell-based, human; conditions: 1×, 2×, 3× IC50, 20 h
Procedure: (B) Extracellular level of HMGB1. […] The data in panels A, B, and C are shown as a mean of 4–5 measurements ± SD. Statistical significance from untreated control was determined with the Student t-test (*p ≤ 0.05, **p ≤ 0.01, and ^#p ≤ 0.001).
HeLa cells were seeded in 24-well plates at a density of 10^4 cells/well and grown overnight. The medium was removed, and a fresh medium (DMEM, 1% BSA, no FBS) containing indicated concentrations of tested complexes was added (300 μL). Following a 20 h treatment, medium samples were withdrawn, and the HMGB1 content was determined using an HMGB1 ELISA Kit (IBL international) following the instructions for use. Cell counts in corresponding wells were determined using Automated Cell Counter (Bio-Rad). HMGB1 concentrations were normalized to cell counts and to the value of untreated control. The experiment was performed twice with duplicate readings.

HeLa cells [3] = assay: Calreticulin exposure (flow cytometry); assay type: cell-based, human; conditions: 3× IC50, 16–18 h, DAPI-negative cells
Procedure: Following the treatment, the cells were harvested (trypsin), washed with FACS buffer (PBS, BSA 1%, and FBS 2%), and incubated with Alexa Fluor 488 Anti-Calreticulin antibody for 40 min at 4 °C. The buffer was removed (CFG, 300 g, 3 min) and replaced with FACS buffer containing DAPI (1 μg mL^–1, 20 min), and the cells were analyzed with flow cytometry (BD FACS Verse) and FCS Express 6 (DeNovo Software, Glendale, CA). Calreticulin fluorescence histograms were analyzed in the DAPI-negative (intact membrane) cell population.

COX in HeLa cells = assay: COX activity assay (kit) in treated cells; assay type: cell-based, human; conditions: 24 h, 1× IC50,72h, vs untreated control
Procedure: The results are expressed relative to the COX activity of untreated control.
HeLa cells were seeded in 6-well plates at a density of 10^5 cells/well and incubated overnight. The cells were treated with the tested compounds at concentrations corresponding to 1× IC50. Following a 24 h treatment, the cells were lyzed with radioimmunoprecipitation assay (RIPA) buffer supplemented with proteinase inhibitors on ice for 10 min. The extracts were cleared with centrifugation (12,000g/5 min), and protein content was determined using Bradford assay. COX activity was determined with a COX Activity Assay Kit (Abcam). 6 μg of protein was used in the reaction. The experiment was set up according to the manufacturer’s instructions. The fluorescence (Ex/Em 535/587 nm) was read in a kinetic mode, and the COX inhibition was expressed as a percentage of the activity of the untreated control.

HCT-116 = assay: MTT antiproliferative assay, 72 h; assay type: cell-based, human; conditions: MTT, 72 h incubation, mean ± SD; read-out: IC50 HCT-116
Procedure: (§1) Cells were treated with the tested compounds in a final volume of 200 μL/well. […] Calbiochem, Darmstadt, Germany) was added, and the cells were incubated for an additional 2–4 h. The medium was removed, and the insoluble formazan product was dissolved in 100 μL/well DMSO. The absorbance was read at 570 nm (vs 620 nm) using an Absorbance Reader (SUNRISE TECAN SCHOELLER). The read values were converted to the percentage of control. […] All experiments were made in triplicate.

HeLa = assay: MTT antiproliferative assay, 72 h; assay type: cell-based, human; conditions: MTT, 72 h incubation, mean ± SD; read-out: IC50 HeLa
Procedure: as §1

MCF-7 = assay: MTT antiproliferative assay, 72 h; assay type: cell-based, human; conditions: MTT, 72 h incubation, mean ± SD; read-out: IC50 MCF-7
Procedure: as §1

MDA-MB-231 = assay: MTT antiproliferative assay, 72 h; assay type: cell-based, human; conditions: MTT, 72 h incubation, mean ± SD; read-out: IC50 MDA-MB-231
Procedure: as §1

HeLa cells [4] = assay: ATP secretion; assay type: cell-based, human; conditions: 1× and 3× IC50, 24 h
Procedure: HeLa cells were seeded in 24-well plates at a density of 10^4 cells/well, grown overnight, and then treated with the tested complexes for 24 h. Aliquots of culture medium samples were withdrawn, centrifugated (500g, 3 min), and processed with ATP Bioluminescence Assay Kit CLS II, Roche. Briefly, 50 μL of cell-free medium samples were added to a 96-well flat white plate, and an equal volume of luciferase reagent was added. The luminescence was measured immediately on a plate reader (SPARK, Tecan). The blank (no ATP) was subtracted from the raw data. ATP concentrations were obtained from the standard curve and normalized to cell counts and control. The data are shown as MEAN of 4–5 independent measurements.

MRC-5 = assay: MTT assay in non-cancerous fibroblasts, 72 h; assay type: cell-based; conditions: non-cancerous human fibroblasts, 72 h incubation, mean ± SD
Procedure: as §1, with “The absorbance was read at 570 nm (vs 620 nm) using an Absorbance Reader (SUNRISE TECAN SCHOELLER).” left out

HeLa cells [5] = assay: Mitochondrial membrane potential (TMRE, flow cytometry); assay type: cell-based, human; conditions: 10× IC50, 1 h, vs untreated control
Procedure: Figure 4 Changes in the mitochondrial membrane potential Δψm in HeLa cells. The cells were treated with Pt compounds at the concentrations corresponding to 10× IC50 for 1 h and subsequently stained with TMRE. The fluorescence was measured by flow cytometry. Data represents mean ± SD from three independent experiments, *p < 0.01.
HeLa cells were seeded (6-well plates, 3 × 10^5 cells/well), grown overnight, and then treated with the tested compounds for 1 h. The medium was removed, and a fresh medium containing TMRE (Thermo Fisher Scientific) at a final concentration of […] in 500 μL was added. The cells were incubated for 30 min at 37 °C and then harvested using trypsin. TMRE fluorescence was measured with a fluorescence-activated cell sorting (FACS) Verse flow cytometer (Becton Dickinson), and the data were analyzed using the ModFit LT 4.1 (Verity Software House) software. The experiment was performed in triplicate.

[6] = test system: DNA isolated from HeLa cells; assay: Pt associated with DNA isolated from treated HeLa cells; assay type: cell-based, human; conditions: 1 µM compound, 6 h, mean ± SD
Text: page 16: Table S1: […] concentration of tested compounds for 6 ha. […] Figure S19: A. Representative histograms obtained by flow cytometric analysis of calreticulin exposure in HeLa cells treated with indicated compounds. B. An example of gating DAPI negative population. Only DAPI-negative cells were taken for the evaluation.

COX-2 in HeLa cells = assay: Western blotting of COX-2; assay type: cell-based, human; conditions: 24 h, 1×, 3× IC50, Western blot
Procedure: (B) Quantitative evaluation of Western blotting data; the relative expression of COX-2 normalized to GAPDH. Data represents the mean ± SD of two experiments. The stars indicate the statistical significance of difference vs control determined with the Student t-test (*p < 0.05, **p < 0.01, ***p < 0.001).
HeLa cells were seeded in 60 mm dishes at a density of 3 × 10^5 cells/dish and cultured for 20 h. The cells were then treated with the tested compounds at concentrations indicated in the text. After 24 h of treatment, the cells were scraped, washed, and pelleted. […] 4–20% SDS-PAGE (sodium dodecyl sulfate-polyacrylamide gel electrophoresis) (Mini-PROTEAN TGX Precast Gel) was used to resolve the proteins. After transferring to the polyvinylidene fluoride membrane, the proteins were detected using appropriate antibodies: anti-GAPDH antibody (mouse, Sigma-Aldrich), Anti-COX-2 (rabbit, Abcam), Anti-α-, β-, or γ-tubulin (all rabbit, Abcam), Anti-β-actin (mouse, Abcam), Goat Anti-Rabbit IgG(HRP) (Abcam; HRP = horseradish peroxidase), and Goat Anti-Mouse IgG(HRP) (ThermoFisher Scientific). SignalFire ECL Reagent (A + B) was used as a substrate for HRP, and the luminescence was recorded with Amersham Imager 680. The densities in the images were assessed with the Aida image analysis software.

A2780 = assay: MTT antiproliferative assay, 72 h; assay type: cell-based, human; conditions: MTT, 72 h incubation, mean ± SD; read-out: IC50 A2780
Procedure: as §1

A2780cisR = assay: MTT antiproliferative assay, 72 h; assay type: cell-based, human; conditions: MTT, 72 h incubation, mean ± SD; read-out: IC50 A2780cisR
Procedure: as §1

[7] = Partition coefficient, shake-flask method; assay type: physicochemical; conditions: octanol/water
Procedure: The “shake flask” method was used to measure the partition coefficients (P) of platinum compounds. The compounds were dissolved in octanol-saturated water (OSW) containing 200 mM NaCl. […] After careful separation of the layers with a fine-tip pipet, the Pt content in individual phases was determined by flameless atomic absorption spectrometry. The partition coefficients were calculated as the concentration ratio of the compound in the octanol layer to that in the aqueous layer, log P = log([Pt]WSO/[Pt]OSW).

HeLa cells [8] = assay: Wound healing assay; assay type: cell-based, human; conditions: 24 h, multiples of IC50,72h
Procedure: Figure 7 (A–E) Wound healing assay. The monolayer of HeLa cells was scratched with a 10 μL tip, and a starving medium containing the tested complexes was added. The shots were taken at times 0 and 24 h. (A) Control, non-treated cells; (B) cells treated with complex 3; (C) cells treated with complex 4. […] (E) Evaluation of wound healing assay. Bars represent gap size vs. Control (100%), following a 24 h incubation with the investigated compounds. Light gray bars: complex 3; dark gray bars: complex 4; black bar: complex 2. (F) Re-adhesion assay. […] Following trypsinization, the cells were resuspended in Dulbecco’s modified Eagle medium (DMEM), counted, left to reconstitute adhesive membrane proteins for 30 min, and re-seeded at the density of 3× 10^4 cells/100 μL/well. After 30 min of incubation at 37 °C, the re-adhesion activity was determined as described in the Experimental Section. Data represents mean ± SD, n = 8; *p < 0.05, **p < 0.01, ***p < 0.001.
HeLa cells were grown close to confluence in 6-well plates in a complete medium, and then the medium was replaced with a serum-free medium [supplemented with 0.1% bovine serum albumin (BSA)], and the cells were incubated for an additional 24 h. The HeLa monolayers were scratched with a 10 μL pipet tip, and the cells were washed twice with PBS to remove peeled cells and treated with tested compounds at indicated concentrations. The scratched areas were shot immediately after the complex addition and then after 24 h with a Canon EOS 1200D camera attached to an Olympus CKX41 inverted microscope with a 10×/0.25 phase contrast objective. Digital images were taken by the QuickPHOTO MICRO 3.1 program (PROMICRA, Prague, Czech Republic) and processed with the TScratch analysis software (ETH Zürich, Switzerland). The cell’s ability to migrate into the open area was expressed as a percentage of control.

HeLa cells [9] = assay: Cellular accumulation of platinum (ICP-MS); assay type: cell-based, human
Procedure: Briefly, 3 × 10^6 cells were seeded in 100 mm culture dishes and grown overnight. The cells were exposed to the tested complexes at indicated concentrations for indicated periods. […] The pellets were digested using the microwave acid (HCl) digestion system (CEM Mars). The platinum quantity taken up by the cells was determined by inductively coupled plasma mass spectrometry (ICP–MS). All experiments were performed in triplicate.

Structure (SMILES): O=C1[O][Pt]2([NH][C@@H]3CCCC[C@H]3[NH]2)[O]C1=O [oxaliplatin]
- tumor cell phagocytosis (tumor cells): does not promote tumor cell phagocytosis

Structure (SMILES): COc1cccc2c1C(=O)c1c(O)c3c(c(O)c1C2=O)C[C@@](O)(C(=O)CO)C[C@@H]3O[C@H]1C[C@H](N)[C@H](O)[C@H](C)O1 [doxorubicin, reference compound]
- increase of tumor-cell phagocytosis [1]: slightly less pronounced levels of phagocytosis

Structure (SMILES): NCCNC(=O)Cc1ccccc1Nc1c(Cl)cccc1Cl [enDCF, diclofenac amide]
- HMGB1 secretion (HeLa cells [2]): effective as well
- externalization of calreticulin (HeLa cells [3]): effective as well
- inhibition of COX activity (COX in HeLa cells): Inhibition of COX activity was also observed
- IC50 (HCT-116): 27 ± 4 µM
- IC50 (HeLa): 30 ± 2 µM
- IC50 (MCF-7): 37 ± 4 µM
- IC50 (MDA-MB-231): 32 ± 3 µM
- ATP secretion (HeLa cells [4]): effective as well
- IC50 (MRC-5): 58 ± 6 µM
- mitochondrial membrane potential Δψm (TMRE fluorescence) (HeLa cells [5]): The same effect

Structure (SMILES): Cc1c(C)c2c3c4c1=CC=C[N]4[Pt]([Cl])([Cl])[N]3C=CC=2.N[C@H]1CCCC[C@@H]1N [complex 2, Pt^IV56MeSSCl2]
- amount of Pt associated with DNA [6]: 1.9 ± 0.1 pg Pt/µg DNA
- intracellular level of COX-2 protein (COX-2 in HeLa cells): markedly less effective
- IC50 (HCT-116): 1.6 ± 0.4 µM
- IC50 (HeLa): 2.9 ± 0.7 µM
- IC50 (MCF-7): 5.9 ± 0.5 µM
- IC50 (A2780): 0.39 ± 0.01 µM
- IC50 (A2780cisR): 0.4 ± 0.08 µM
- IC50 (MDA-MB-231): 1.5 ± 0.4 µM
- log P [7]: –2.1 ± 0.2
- migration activity (wound closing) (HeLa cells [8]): less efficient in inhibting artificial wound closing
- cellular uptake 0.1 μM/24 h (HeLa cells [9]; 0.1 μM complex, 24 h): 2.2 ± 0.2 ng Pt/10^6 cells
- cellular uptake 1 μM/6 h (HeLa cells [9]; 1 μM complex, 6 h): 6.2 ± 0.3 ng Pt/10^6 cells
- cellular uptake 10 μM/6 h (HeLa cells [9]; 10 μM complex, 6 h): 47 ± 2 ng Pt/10^6 cells
- IC50 (MRC-5): 2.1 ± 0.4 µM
- mitochondrial membrane potential Δψm (TMRE fluorescence) (HeLa cells [5]): insignificant impact on the Δψm
